Where two headings read alike, the source gives them in different places.
Key:
[1] = tested on: Pcca^−/−PCCA(A138T)^tg/0 mice; assay: Total CoA in liver and brain of Pcca−/−PCCA(A138T)tg/0 mice; assay type: in vivo; settings: 22.5 ppm (3 mg/kg) in chow for 30 days after weaning
Text: (§1) Water was supplied ad libitum.

[2] = tested on: Pcca^−/−PCCA(A138T)^tg/0 mice; assay: Plasma and urine metabolites (TCA cycle intermediates) in Pcca−/−PCCA(A138T)tg/0 mice; assay type: in vivo; settings: 22.5 ppm (3 mg/kg) in chow
Method: The mice were maintained at 72′±2° F., humidity 50%±10% and a 14-hour light/10-hour dark cycle with the dark cycle starting at 20:00 hrs. Water was supplied ad libitum. The mice were randomized into the treatment arms to achieve a normal weight distribution. […] Blood was collected in ethylenediaminetetraacetic acid (EDTA) at P50 by cardiac puncture from isoflurane-anesthetized animals, plasma was prepared and stored frozen at −80° C. until analysis. Liver, brain, and heart were quickly excised, immediately flash frozen in liquid nitrogen and stored frozen at −80° C. until analysis.
Metabolites from Urine and Plasma: Water was added to thawed 24-hr urine samples to a final volume of 1 mL for each mouse. To 100 μL of urine or 20 μL of plasma, warfarin standard was added at a final concentration of 0.2 μM and the sample was incubated at −80° C. for 1 hour. The sample was centrifuged at 6000×g for 10 minutes to remove precipitants and the supernatant was analyzed by LC/MS/MS. Analysis was performed using a Shimadzu Prominence UFLC attached to a QTrap 4500 equipped with a Turbo V ion source (Sciex). […] The system was controlled by the Analyst® software (Sciex) and analyzed with MultiQuant™ 3.0.2 software (Sciex). The relative amount of metabolite was normalized to the amount of warfarin then the ratio to creatinine was calculated.

[3] = tested on: Pcca^−/−PCCA(A138T)^tg/0 mice; assay: Survival of Pcca−/−PCCA(A138T)tg/0 mice; assay type: in vivo; settings: 22.5 ppm (3 mg/kg) in chow; untreated ~51%
Text: as §1
At postnatal day 90, the probability of survival of Pcca^−/−PCCA(A138T)^tg/0 mice was ˜51%.

[4] = tested on: Pank1,2 neural knockout mice; assay: Open field test in Pank1,2 neural knockout mice; assay type: in vivo; settings: 22.5 ppm in chow from postnatal day 14; postnatal day 45
Method: The mice were maintained at 72°±2° F., humidity 50%±10% and a 14-hour light/10-hour dark cycle with the dark cycle starting at 20:00 hrs. Water was supplied ad libitum. […] The mice were randomized into the treatment arms. […] Each animal was placed in the center of the arena under standard overhead lighting and the total distance traveled and the percentage of time in motion were recorded.

[5] = tested on: SynCre^+Pank1^−/−Pank2^−/− mice; assay: Neurometabolites by 1H MRS in SynCre+Pank1−/−Pank2−/− mice; assay type: in vivo; settings: 10 mg/kg/day (75 ppm) in chow; midbrain 1H MRS at P45; normalized to total creatine; mean ± SD
Method: The ^1H MRS studies were performed on a Bruker Clinscan 7T magnetic resonance imaging (MRI) scanner (Bruker BioSpin MRI GmbH, Ettlingen, Germany). Mice were anesthetized using isoflurane mixed with oxygen (1-2%) and the respiration rate was monitored. Each MRI was acquired with a mouse brain surface receive coil positioned over the mouse head and placed inside a 72 mm transmit/receive coil. After the localizer, a T2-weighted turbo spin echo sequence was performed in the coronal (TR/TE=2290/41 ms, matrix size=192×256, slice thickness 0.5 mm, number of slices=14) and axial (TR/TE=3841/50 ms, matrix size=192×144, slice thickness 0.4 mm, number of slices=42) orientations. The T2-weighted scans were used to position a 3.5×4.5×2.0 mm^3 voxel for spectroscopy in the midbrain to cover thalamus and hippocampus. […] The in vivo ^1H MRS data were quantified as the Metabolite to tCr ratio using LCModel software (v.6.3), a widely applied MRS analysis tool that employs a least-squares-based prior-knowledge fitting program. The concentration of metabolites was measured using the unsuppressed water peak as a concentration standard. […]
Data analysis: Statistical significance (p values) was determined using a two-tailed Student's t test using GraphPad software. The MRS parameters were analyzed using ‘R’ 4.0.2 and the mean values and standard deviations were calculated for each group of mice. […]

[6] = Text: Safety and tolerability endpoints will include monitoring and recording of AEs, clinical laboratory test results (hematology, serum chemistry, and urinalysis), vital sign measurements, 12-lead ECG results, and physical examination findings. The PA/MMA cohort will also be screened for suicidal ideation using the C-SSRS.
[7] = in vivo
Method: Holter monitoring will be obtained as indicated in the SOE. Blood and urine for PK and PD will be obtained and safety assessments will be performed. In addition, Cohort 3 (70 mg cohort) will have CSF obtained via lumbar puncture for PK assessment.

PanK = assay: Phase 1 pharmacodynamic biomarkers, plasma pantothenate and whole blood acetyl-CoA; assay type: in vivo, human; settings: MAD cohorts at steady-state
Text: Pharmacodynamic biomarker assessments will include whole blood acetyl-CoA, plasma pantothenate, and other exploratory PD biomarkers.
Pharmacodynamic biomarker samples will be analyzed using a validated assay for the PD assessments.
In MAD cohorts at steady-state, decreases in the PanK substrate, pantothenate, were observed, concurrent with increases in the PanK product, acetyl-CoA, in whole blood.

[8] = 22.5 ppm (3 mg/kg) in chow for 30 days after weaning
Method: The mice were maintained at 72′±2° F., humidity 50%±10% and a 14-hour light/10-hour dark cycle with the dark cycle starting at 20:00 hrs. Water was supplied ad libitum. The mice were randomized into the treatment arms to achieve a normal weight distribution. […] However, this is merely an approximation, as Pcca^−/−PCCA(A138T)^tg/0 mice weigh less but also eat less than wild-type mice. […] Blood was collected in ethylenediaminetetraacetic acid (EDTA) at P50 by cardiac puncture from isoflurane-anesthetized animals, plasma was prepared and stored frozen at −80° C. until analysis. Liver, brain, and heart were quickly excised, immediately flash frozen in liquid nitrogen and stored frozen at −80° C. until analysis.
The samples were incubated on ice for 30 min. Samples were spun at 3500×g for 10 min to pellet debris, and the supernatant was transferred to a glass vial. […] 30 mg of tissue was homogenized in 2 mL of 80% methanol containing 0.1 μM warfarin and incubated at −80° C. for 4 hr. Samples were spun at 3500×g for 10 min to pellet debris, supernatant was transferred to a glass tube and dried down using a Savant SPD1010 Speed-Vac (Thermo Scientific) overnight. Samples were resuspended in 400 μL of 80% acetonitrile to a final concentration of 0.5 μM and transferred to a glass vial. […]

[9] = rat, in vivo
[10] = dog, in vivo
[11] = oral gavage 10 mg/animal and 200 mg/animal; tablet or suspension
[12] = 60 mg, fed vs fasted
Method: All subjects will receive 2 doses of study drug in a crossover manner, separated by a washout period of 7 days or 5 half-lives up to 21 days (whichever is longer).
Study drug will then be administered along with a standardized high-calorie (approximately 800 to 1000 calories) breakfast. The meal will be ingested entirely within 30 minutes, and study drug will be administered 30 minutes after the start of the meal.

in vivo [13] = settings: dog
in vivo [14] = settings: mouse, rat, dog, monkey, iv
in vivo [15] = settings: female, rat
[16] = of all Compound (I) treated subjects

O=C(Cc1ccc(C2CC2)c(F)c1)N1CCN(c2ccc(Cl)nn2)CC1 [Compound (I), 1-(4-(6-chloropyridazin-3-yl)piperazin-1-yl)-2-(4-cyclopropyl-3-fluorophenyl)ethan-1-one]
Increase of brain total CoA compared to untreated mice ([1]; brain): ~44%
Increase of liver total CoA compared to untreated mice ([1]; liver): ~45%
Levels of methylcitrate, methylmalonate and α-ketoglutarate in plasma [2]: reduced
Probability of survival at postnatal day 90 [3]: ~94%
Movement in open field [4]: some improvement in movement
GABA (GABA/tCr) [5]: 0.40 ± 0.02
Tolerability ([6]; 60 healthy adult subjects, Phase 1 study): generally well-tolerated
Mild treatment-related TEAE abdominal pain [6, 16]: 1.7%
Mild treatment-related TEAE headache [6, 16]: 5%
Mild treatment-related TEAE nausea [6, 16]: 1.7%
Blood brain barrier penetration [7]: crossed the blood brain barrier
Plasma Compound (I) concentration up to which increases in whole blood acetyl-CoA were observed (PanK): ~200 mg/mL
Plasma pantothenate (PanK; healthy adult subjects): decreased
Whole blood acetyl-CoA (PanK; healthy adult subjects): increased
Distribution of Compound (I) into liver, brain and heart [8]: well distributed into the liver, and to a lesser extent in brain and heart
Exposure in female mice versus males [8]: higher exposures than males
Accumulation after multiple doses [9]: Less than 2 fold
Exposures in male rats versus female rats at the same doses [9]: lower exposures than female rats
Accumulation after multiple doses [10]: Less than 2 fold
Dose proportionality of exposure as defined by AUC0-24 [11]: dose proportional
Dose proportionality of exposure as defined by Cmax [11]: close to dose proportional
Delay of absorption by food [12]: ~2 h
Increase in plasma exposure with food [12]: ~1.3 fold
clearance (in vivo [13]; iv): 16.9 mL/min/kg
bioavailability (in vivo [13]; po): 29.8%
half-life (in vivo [14]): 60 to 180 min
NOAEL at 13 weeks (in vivo [15]): 8 mg/kg/day

Reference: patent US20260183283A1 (priority 2022, published 2026)
